Our source for the EC50 values is patent US9024022B2, “Substrates of O6-alkylguanine-DNA alkyltransferase and mutants thereof” (Cis Bio International, priority 2008, dated 2015).

In this test the target is T1, CLIP-tag enzyme (CLIPtag-mGluR2 fusion protein) (Homo sapiens, UniProt P16455, A121V/A127T/A154D/C150Q/C62A/G131N/G132T/G153S/K125A/K32I/L33F/M134L/M60I/N157P/Q115S/Q116H/R128A/R135D/S151G/S152D/S159L/Y114E).
T1 construct: The co-expressed SNAPtag-mGluR2 is a separate chain that carries the FRET partner dye
T1 sequence (P16455 1-207 K32I/L33F/M60I/C62A/Y114E/Q115S/Q116H/A121V/K125A/A127T/R128A/G131N/G132T/M134L/R135D/C150Q/S151G/S152D/G153S/A154D/N157P/S159L): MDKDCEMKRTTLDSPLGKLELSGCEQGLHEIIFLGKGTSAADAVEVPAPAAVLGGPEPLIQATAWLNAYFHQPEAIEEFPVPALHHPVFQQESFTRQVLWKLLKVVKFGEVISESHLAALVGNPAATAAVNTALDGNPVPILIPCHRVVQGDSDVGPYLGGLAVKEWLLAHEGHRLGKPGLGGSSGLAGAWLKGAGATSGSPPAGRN
The experiment in a line: Cell model with CLIPtag-mGluR2 and SNAPtag-mGluR2 cotransfection, TR-FRET at 665 nm. The format is cell-based. The following applies: cells incubated with 300 nM of BG-methylbenzamide-Tb(KR); TR-FRET; read-out: half saturation concentration of CLIPtag. As to the method: The cell model used in this example is different from that used in the preceding examples:
The cells are either cotransfected with a plasmid coding for the fusion protein CLIPtag-mGluR2 and another plasmid coding for the fusion protein SNAPtag-mGluR2, or transfected with a single plasmid coding for the fusion protein SNAPtag-mGluR2.
Each cell population is incubated in the presence of 300 nM of BG-methylbenzamide-DY647 and increasing concentrations of reference substrates (BC-Tb(KR)) or of a substrate according to the invention (BC-methylbenzamide-Tb(KR)). The fluorescence is measured at 665 nm in TR-FRET mode on a Rubystar machine and the signal measured is representative of a transfer of energy following the dimerization of two monomers of mGluR2 labeled respectively by DY647 and Tb(KR).
This example is carried out in the same way as example 7 but the cells are incubated in the presence of 300 nM of BG-methylbenzamide-Tb(KR) and increasing concentrations of reference substrate (BC-DY647) or of substrate according to the invention (BC-methylbenzamide-DY647), the formulae of which are below: […]

Consider `CCN1/C(=C/C=C/C=C/C2=[N+](CC)c3ccc(S(=O)(=O)[O-])cc3C2(C)C)C(C)(CCCC(=O)NCc2ccc(C(=O)NCc3ccc(COc4nccc(N)n4)cc3)cc2)c2cc(S(=O)(=O)O)ccc21` (stereo not shown) [BC-methylbenzamide-DY647, DY647-methylbenzamide-BC], for which the EC50 came out at 240 nM.
